# Data published in publication PMC12155096 (International Journal of Molecular Sciences, 2025).
# Where a name gives a salt, the structure may show the parent alone.
# How the values were obtained:
# human CYP1A2 [1] = biological target: T1, human CYP1A2 (Homo sapiens, UniProt P05177); details: for CYP1A2 Efficacy (in parenthesis): human
# T1 sequence (P05177 1-516): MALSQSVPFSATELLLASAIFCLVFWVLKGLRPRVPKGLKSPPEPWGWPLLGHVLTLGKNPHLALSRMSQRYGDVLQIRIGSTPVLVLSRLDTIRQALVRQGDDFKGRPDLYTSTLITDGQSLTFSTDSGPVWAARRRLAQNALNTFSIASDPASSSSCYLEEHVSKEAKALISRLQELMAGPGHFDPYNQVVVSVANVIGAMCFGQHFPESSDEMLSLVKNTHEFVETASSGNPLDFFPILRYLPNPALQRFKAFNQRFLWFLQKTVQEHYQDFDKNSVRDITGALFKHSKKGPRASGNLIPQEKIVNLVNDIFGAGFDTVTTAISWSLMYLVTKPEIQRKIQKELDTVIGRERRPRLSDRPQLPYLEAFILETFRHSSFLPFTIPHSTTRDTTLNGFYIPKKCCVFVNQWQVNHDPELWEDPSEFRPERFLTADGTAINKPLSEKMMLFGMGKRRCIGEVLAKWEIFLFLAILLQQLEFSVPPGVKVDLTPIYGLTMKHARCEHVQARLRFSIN
# human CYP2C19 [2] = biological target: T2, human CYP2C19 (Homo sapiens, UniProt P33261); details: for CYP2C19 Efficacy (in parenthesis): human
# T2 sequence (P33261 whole entry): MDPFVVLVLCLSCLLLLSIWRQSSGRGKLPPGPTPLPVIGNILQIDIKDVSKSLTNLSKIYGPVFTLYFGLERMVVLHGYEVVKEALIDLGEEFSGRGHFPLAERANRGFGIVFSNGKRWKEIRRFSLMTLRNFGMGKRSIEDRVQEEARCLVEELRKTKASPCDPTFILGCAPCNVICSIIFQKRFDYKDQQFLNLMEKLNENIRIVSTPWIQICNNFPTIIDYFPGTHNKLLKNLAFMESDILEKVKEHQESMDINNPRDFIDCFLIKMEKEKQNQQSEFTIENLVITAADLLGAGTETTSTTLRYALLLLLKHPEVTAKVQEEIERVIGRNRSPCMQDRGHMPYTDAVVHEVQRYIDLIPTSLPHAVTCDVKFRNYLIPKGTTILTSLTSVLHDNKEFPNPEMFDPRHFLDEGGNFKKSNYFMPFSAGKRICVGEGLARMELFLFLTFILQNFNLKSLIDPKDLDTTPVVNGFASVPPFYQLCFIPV
# human CYP2C9 [3] = biological target: T3, human CYP2C9 (Homo sapiens, UniProt P11712); test: biochemical; details: for AC50: CYP2C9 AC50 (half-maximal activity concentration)
# T3 sequence (P11712 whole entry): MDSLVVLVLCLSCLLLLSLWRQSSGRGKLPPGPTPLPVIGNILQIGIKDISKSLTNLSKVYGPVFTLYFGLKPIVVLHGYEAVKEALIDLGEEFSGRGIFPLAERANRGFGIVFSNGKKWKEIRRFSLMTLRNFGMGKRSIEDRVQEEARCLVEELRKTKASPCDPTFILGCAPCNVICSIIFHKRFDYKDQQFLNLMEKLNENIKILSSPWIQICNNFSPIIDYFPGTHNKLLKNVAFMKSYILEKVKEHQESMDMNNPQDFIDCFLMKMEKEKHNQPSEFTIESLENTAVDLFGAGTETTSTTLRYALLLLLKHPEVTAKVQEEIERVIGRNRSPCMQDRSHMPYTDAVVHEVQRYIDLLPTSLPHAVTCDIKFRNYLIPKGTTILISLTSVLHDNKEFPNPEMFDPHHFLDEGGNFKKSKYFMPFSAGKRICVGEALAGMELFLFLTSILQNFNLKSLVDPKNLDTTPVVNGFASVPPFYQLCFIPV
# human CYP2D6 [4] = biological target: T4, human CYP2D6 (Homo sapiens, UniProt P10635); test: biochemical; details: CYP2D6 AC50 (half-maximal activity concentration)
# T4 sequence (P10635 whole entry): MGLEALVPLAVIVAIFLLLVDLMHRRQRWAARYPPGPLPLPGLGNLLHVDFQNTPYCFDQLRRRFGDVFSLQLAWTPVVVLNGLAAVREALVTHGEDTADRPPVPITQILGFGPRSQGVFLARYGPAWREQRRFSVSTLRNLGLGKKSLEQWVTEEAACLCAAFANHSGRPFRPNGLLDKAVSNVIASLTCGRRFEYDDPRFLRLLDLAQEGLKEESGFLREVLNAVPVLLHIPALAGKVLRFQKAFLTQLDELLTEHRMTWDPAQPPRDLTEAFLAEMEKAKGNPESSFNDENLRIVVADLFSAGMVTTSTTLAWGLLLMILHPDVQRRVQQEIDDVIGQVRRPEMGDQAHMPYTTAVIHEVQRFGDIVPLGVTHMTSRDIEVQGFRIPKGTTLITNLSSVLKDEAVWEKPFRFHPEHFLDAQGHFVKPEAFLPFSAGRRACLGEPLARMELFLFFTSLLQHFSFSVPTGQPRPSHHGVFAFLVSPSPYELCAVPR
# CYP3A4 [5] = biological target: T5, CYP3A4 (Homo sapiens, UniProt P08684); test: biochemical; details: for AC50: CYP3A4 AC50 (half-maximal activity concentration); for IC50: CYP3A4 IC50 (half-maximal inhibitory concentration)
# T5 sequence (P08684 whole entry): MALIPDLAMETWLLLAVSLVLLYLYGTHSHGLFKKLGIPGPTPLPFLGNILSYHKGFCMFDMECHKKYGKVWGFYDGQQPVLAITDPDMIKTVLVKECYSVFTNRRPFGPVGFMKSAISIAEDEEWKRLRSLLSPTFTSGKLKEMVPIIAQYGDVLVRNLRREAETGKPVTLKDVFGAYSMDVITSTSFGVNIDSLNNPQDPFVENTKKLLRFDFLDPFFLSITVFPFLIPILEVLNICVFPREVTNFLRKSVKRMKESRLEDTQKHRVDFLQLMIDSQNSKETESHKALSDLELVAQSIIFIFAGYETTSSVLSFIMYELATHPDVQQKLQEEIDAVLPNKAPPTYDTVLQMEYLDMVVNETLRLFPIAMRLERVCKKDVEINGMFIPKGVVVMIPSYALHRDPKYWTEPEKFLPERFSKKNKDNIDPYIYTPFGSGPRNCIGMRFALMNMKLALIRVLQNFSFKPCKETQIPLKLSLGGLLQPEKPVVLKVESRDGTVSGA
# [6] = biological target: Photinus pyralis (firefly) luciferase (Photinus pyralis, UniProt P08659); test: biochemical; assay type: biochemical
# Chain of Photinus pyralis (firefly) luciferase (P08659 whole entry): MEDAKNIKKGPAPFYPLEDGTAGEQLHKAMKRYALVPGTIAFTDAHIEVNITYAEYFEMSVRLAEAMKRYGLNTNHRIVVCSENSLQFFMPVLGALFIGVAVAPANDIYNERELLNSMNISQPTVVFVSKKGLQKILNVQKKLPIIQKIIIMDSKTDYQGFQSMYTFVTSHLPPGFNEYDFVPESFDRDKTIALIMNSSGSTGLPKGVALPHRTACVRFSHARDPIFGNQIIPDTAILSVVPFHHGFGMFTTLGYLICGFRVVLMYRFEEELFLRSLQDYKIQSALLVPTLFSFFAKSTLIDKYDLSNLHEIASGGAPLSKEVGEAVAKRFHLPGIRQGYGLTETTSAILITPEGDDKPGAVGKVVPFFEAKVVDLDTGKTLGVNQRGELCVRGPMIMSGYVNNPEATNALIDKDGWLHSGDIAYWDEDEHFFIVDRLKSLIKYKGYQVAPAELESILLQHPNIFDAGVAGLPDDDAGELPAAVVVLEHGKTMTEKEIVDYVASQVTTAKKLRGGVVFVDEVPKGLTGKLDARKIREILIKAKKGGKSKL
# human CYP2C9 [7] = biological target: T3, human CYP2C9; details: for CYP2C9 Efficacy (in parenthesis): human
# human CYP2D6 [8] = biological target: T4, human CYP2D6
# CYP3A4 [9] = biological target: T5, CYP3A4
# human CYP1A2 [10] = biological target: T1, human CYP1A2; test: biochemical; details: for AC50: CYP1A2 AC50 (half-maximal activity concentration)
# human CYP2C19 [11] = biological target: T2, human CYP2C19; test: biochemical; details: for IC50: CYP2C19 IC50 (half-maximal inhibitory concentration); for AC50: CYP2C19 AC50 (half-maximal activity concentration)
# [12] = CYP1A2 IC50 (half-maximal inhibitory concentration)
# [13] = CYP2C9 IC50 (half-maximal inhibitory concentration)
Compound,CYP1A2 AC50 (half-maximal activity concentration) (human CYP1A2 [1]),AC50 (human CYP2C9 [3]) [µM],AC50 (human CYP2D6 [4]) [µM],AC50 (CYP3A4 [5]) [µM],CYP2D6 IC50 (half-maximal inhibitory concentration) (human CYP2D6 [8]),CYP3A4 Efficacy (in parenthesis) (CYP3A4 [9]),AC50 (human CYP2C19 [11]) [µM],also measured
"O=C(Cl)c1cccc(C(=O)Cl)c1 [1,3-Benzenedicarbonyl dichloride]",Inactive,68.7,24.9,26.8,–,–,–,CYP2C19 AC50 (half-maximal activity concentration) (human CYP2C19 [2]): Inactive
Oc1ccc2ccc3cccc4ccc1c2c34 [1-Hydroxypyrene],–,–,–,–,Inactive,27.72 ± 10.43 (-84 ± 7) %,–,IC50 [6]: 68.7 µM; CYP1A2 Efficacy (in parenthesis) (human CYP1A2 [1]): 0.83 ± 0.11 (-98 ± 1) %; CYP2C9 Efficacy (in parenthesis) (human CYP2C9 [7]): 35.57 ± 0 (-80 ± 9) %; CYP2C19 Efficacy (in parenthesis) (human CYP2C19 [2]): 15.71 ± 4.38 (-129 ± 16) %; IC50 (human CYP1A2 [10]; [12]): 0.83 µM; IC50 (human CYP2C9 [3]; [13]): 35.6 µM; IC50 (human CYP2C19 [11]): 15.7 µM; IC50 (CYP3A4 [5]): 27.7 µM
"Brc1ccc(Oc2ccc(Br)cc2Br)c(Br)c1 [2,2'4,4'-Tetrabromodiphenyl ether]",–,12.7,–,13,Inactive,13.01 ± 6.86 (68 ± 8) %,0.55,IC50 [6]: 44 µM; CYP1A2 Efficacy (in parenthesis) (human CYP1A2 [1]): 16.84 ± 7.26 (-69 ± 6) %; CYP2C19 Efficacy (in parenthesis) (human CYP2C19 [2]): 0.55 ± 0.43 (-128 ± 5) %; CYP3A4 IC50 (half-maximal inhibitory concentration) (CYP3A4 [9]): 13.01 ± 6.86 (68 ± 8) µM; AC50 (human CYP1A2 [10]): 16.8 µM; IC50 (human CYP1A2 [10]; [12]): 16.8 µM; IC50 (human CYP2C19 [11]): 0.55 µM
Brc1c2ccccc2cc2ccccc12 [9-Bromoanthracene],–,–,–,–,Inactive,25.01 ± 9.91 (-59 ± 38) %,–,IC50 [6]: 42.3 µM; CYP1A2 Efficacy (in parenthesis) (human CYP1A2 [1]): 0.51 ± 0.11 (-99 ± 4) %; CYP2C9 Efficacy (in parenthesis) (human CYP2C9 [7]): 34.62 ± 2.26 (-73 ± 9) %; CYP2C19 Efficacy (in parenthesis) (human CYP2C19 [2]): 26.26 ± 8.46 (-125 ± 5) %; IC50 (human CYP1A2 [10]; [12]): 0.51 µM; IC50 (human CYP2C9 [3]; [13]): 34.6 µM; IC50 (human CYP2C19 [11]): 26.3 µM; IC50 (CYP3A4 [5]): 25 µM
O=C1c2ccccc2Cc2ccccc21 [Anthrone],–,–,–,–,Inactive,26.66 ± 4.8 (-63 ± 11) %,–,Luciferase IC50 (half-maximal inhibitory concentration) [6]: Inactive; CYP1A2 Efficacy (in parenthesis) (human CYP1A2 [1]): 0.44 ± 0.07 (-99 ± 1) %; CYP2C9 Efficacy (in parenthesis) (human CYP2C9 [7]): 12.58 ± 3.51 (-54 ± 8) %; CYP2C19 Efficacy (in parenthesis) (human CYP2C19 [2]): 15.72 ± 5.91 (-83 ± 4) %; IC50 (human CYP1A2 [10]; [12]): 0.44 µM; IC50 (human CYP2C9 [3]; [13]): 12.6 µM; IC50 (human CYP2C19 [11]): 15.7 µM; IC50 (CYP3A4 [5]): 26.7 µM
O=C(CCCN1CCN(c2ccccn2)CC1)c1ccc(F)cc1 [Azaperone],Inactive,5.25,12.4,5.97,–,–,32.7,–
O=c1[nH]c2ccc([S+]([O-])CCN3CCC(Cc4ccc(F)cc4)CC3)cc2o1 (stereo not drawn) [Besonprodil],Inactive,6.44,33,21.5,–,–,50.9,–
CC1(C)C(C=C(Cl)Cl)C1C(=O)OC(C#N)c1ccc(F)c(Oc2ccccc2)c1 (stereo not drawn) [Cyfluthrin],Inactive,3.92,22.2,4.01,–,–,10.4,–
CCOP(=S)(OCC)Oc1ccc(Cl)cc1Cl [Dichlofenthion],–,–,–,–,Inactive,2.22 ± 0.62 (-82 ± 5) %,–,Luciferase IC50 (half-maximal inhibitory concentration) [6]: Inactive; CYP1A2 Efficacy (in parenthesis) (human CYP1A2 [1]): 3.07 ± 0.42 (-101 ± 5) %; CYP2C9 Efficacy (in parenthesis) (human CYP2C9 [7]): 3.56 ± 0 (-100 ± 3) %; CYP2C19 Efficacy (in parenthesis) (human CYP2C19 [2]): 0.44 ± 0.11 (-121 ± 28) %; IC50 (human CYP1A2 [10]; [12]): 3.07 µM; IC50 (human CYP2C9 [3]; [13]): 3.56 µM; IC50 (human CYP2C19 [11]): 0.44 µM; IC50 (CYP3A4 [5]): 2.22 µM
CCOc1ccc(C(C)(C)COCc2cccc(Oc3ccccc3)c2)cc1 [Etofenprox],Inconclusive inhibitor,7.13,34.3,35.7,–,–,16.4,–
CCOC(=O)c1nc(C(Cl)(Cl)Cl)n(-c2ccc(Cl)cc2Cl)n1 [Fenchlorazole-ethyl],Inactive,3.92,13.1,3.26,–,–,7.02,–
O=C(NC1CCN(CCc2c[nH]c3ccccc23)CC1)c1ccccc1 [Indoramin hydrochloride],Inactive,–,4.31,15.6,–,–,–,CYP2C9 AC50 (half-maximal activity concentration) (human CYP2C9 [7]): Inactive; CYP2C19 AC50 (half-maximal activity concentration) (human CYP2C19 [2]): Inactive
Cc1cccc(C)c1NC(=O)CN1CCN(CCCC(c2ccc(F)cc2)c2ccc(F)cc2)CC1 [Lidoflazine],Inactive,21.3,5.18,2.26,–,–,36.7,–
CC[N+](C)(CC)CCOC(=O)C1c2ccccc2Oc2ccccc21 [Methantheline bromide],Inconclusive inhibitor,–,3.29,15.6,–,–,–,CYP2C9 AC50 (half-maximal activity concentration) (human CYP2C9 [7]): Inactive; CYP2C19 AC50 (half-maximal activity concentration) (human CYP2C19 [2]): Inactive
CC(C)(C(=O)c1cccnc1)c1cccnc1 [Metyrapone],–,–,–,–,Inactive,0.57 ± 0.16 (-62 ± 5) %,–,Luciferase IC50 (half-maximal inhibitory concentration) [6]: Inactive; CYP1A2 IC50 (half-maximal inhibitory concentration) (human CYP1A2 [1]): Inactive; CYP2C9 IC50 (half-maximal inhibitory concentration) (human CYP2C9 [7]): Inactive; CYP2C19 IC50 (half-maximal inhibitory concentration) (human CYP2C19 [2]): Inactive; IC50 (CYP3A4 [5]): 0.57 µM
O=C1NC2CCCCN2C12CCN(CCCN1c3ccccc3CCc3ccc(Cl)cc31)CC2 (stereo not drawn) [Mosapramine],Inactive,–,6.53,6.79,–,–,–,CYP2C9 AC50 (half-maximal activity concentration) (human CYP2C9 [7]): Inconclusive inhibitor; CYP2C19 AC50 (half-maximal activity concentration) (human CYP2C19 [2]): Inconclusive inhibitor
CC1(C)C(C=C(Cl)Cl)C1C(=O)OCc1cccc(Oc2ccccc2)c1 (stereo not drawn) [Permethrin],–,11.2,27.5,10.9,–,–,5.91,–
CN1CCC(=C2c3ccccc3Sc3ccccc32)CC1 [Pimethixene maleate],Inactive,–,3.22,16.1,–,–,21.7,CYP2C9 AC50 (half-maximal activity concentration) (human CYP2C9 [7]): Inactive
Oc1ccc2[nH]cc(CCCCN3CC=C(c4ccccc4)CC3)c2c1 [Roxindole],–,21.2,–,1.91,–,–,–,Luciferase IC50 [6]: Inactive; CYP2C19 IC50 (human CYP2C19 [2]): Inactive; CYP3A4 IC50 (CYP3A4 [9]): 1.91 ± 0.48 (802 ± 30) µM; AC50 (human CYP1A2 [10]): 22.4 µM; IC50 (human CYP1A2 [10]; CYP1A2 IC50): 22.4 µM; IC50 (human CYP2C9 [3]; CYP2C9 IC50): 21.2 µM
Oc1c(Cl)c(Cl)c(Cl)c(Cl)c1Cl [Sodium pentachlorophenate],–,–,2.15,71,–,–,–,CYP2C19 AC50 (half-maximal activity concentration) (human CYP2C19 [2]): Inactive; AC50 (human CYP1A2 [10]): 73.9 µM
c1ccc(P(c2ccccc2)c2ccccc2)cc1 [Triphenylphosphine],Inactive,7.13,35.7,36.2,–,–,8.69,–
"Clc1ccc(C(c2ccccc2Cl)C(Cl)(Cl)Cl)cc1 (stereo not drawn) [o,p'-DDT]",–,10.9,–,11.6,Inactive,11.59 ± 3.23 (99 ± 19) %,0.35,Luciferase IC50 (half-maximal inhibitory concentration) [6]: Inactive; CYP1A2 IC50 (half-maximal inhibitory concentration) (human CYP1A2 [1]): Inactive; CYP2C9 Efficacy (in parenthesis) (human CYP2C9 [7]): 10.87 ± 3.7 (-95 ± 6) %; CYP2C19 Efficacy (in parenthesis) (human CYP2C19 [2]): 0.35 ± 0.15 (-129 ± 3) %; CYP3A4 IC50 (half-maximal inhibitory concentration) (CYP3A4 [9]): 11.59 ± 3.23 (99 ± 19) µM; IC50 (human CYP2C9 [3]; [13]): 10.9 µM; IC50 (human CYP2C19 [11]): 0.35 µM
